Assay results taken from patent US7868008B2, “Substituted isoindolones and their use as metabotropic glutamate receptor potentiators” (AstraZeneca AB, priority 2005, dated 2011).

Biological target: T1, human mGluR2 (Homo sapiens, UniProt Q14416)
T1 construct: chimeric mGluR2/CaR construct comprising the extracellular and transmembrane domains of human mGluR2 and the intracellular domain of the human calcium receptor, fused
Assay: mGluR2 potentiator assays described herein (FLIPR calcium mobilization in HEK 293 cells expressing chimeric mGluR2/CaR, or [35S]-GTPγS binding with CHO cell membranes)
Type: cell-based
Conditions: assay not specified (FLIPR or [35S]-GTPγS); allosteric activator/potentiator activity at mGluR2
Description: The pharmacological properties of the compounds of the invention can be analyzed using standard assays for functional activity. Examples of glutamate receptor assays are well known in the art as described in, for example, Aramori et al., 1992, Neuron, 8:757; Tanabe et al., 1992, Neuron, 8:169; Miller et al., 1995, J. Neuroscience, 15:6103; Balazs, et al., 1997, J. Neurochemistry, 1997, 69:151. The methodology described in these publications is incorporated herein by reference. Conveniently, the compounds of the invention can be studied by means of an assay that measures the mobilization of intracellular calcium, [Ca^2+]i in cells expressing mGluR2.
Fluorometric Imaging Plate Reader (FLIPR) analysis was used to detect allosteric activators of mGluR2 via calcium mobilization. A clonal HEK 293 cell line expressing a chimeric mGluR2/CaR construct comprising the extracellular and transmembrane domains of human mGluR2 and the intracellular domain of the human calcium receptor, fused to the promiscuous chimeric protein Gαqi5 was used. […] At 24-hours prior to analysis, the cells were trypsinized and plated in DMEM at 100,000 cells/well in black sided, clear-bottom, collagen I coated, 96-well plates. The plates were incubated under 5% CO2 at 37° C. overnight. Cells were loaded with 6 μM fluo-3 acetoxymethylester (Molecular Probes, Eugene Oreg.) for 60 minutes at room temperature. […]
FLIPR experiments were done using a laser setting of 0.8 W and a 0.4 second CCD camera shutter speed. […] An addition of test compound (0.01 μM to 30 μM in duplicate) was made after 10 seconds of baseline fluorescent readings were recorded on FLIPR. Fluorescent signals were then recorded for an additional 75 seconds at which point a second addition of DCG-IV (0.2 μM) was made and fluorescent signals were recorded for an additional 65 seconds. Fluorescent signals were measured as the peak height of the response within the sample period. Data was analyzed using Assay Explorer, and EC50 and Emax values (relative to maximum DCG-IV effect) were calculated using a four parameter logistic equation.
A [^35S]-GTPγS binding assay was used to functionally assay mGluR2 receptor activation. The allosteric activator activity of compounds at the human mGluR2 receptor were measured using a [^35S]-GTPγS binding assay with membranes prepared from CHO cells which stably express the human mGluR2. […] The GTPγS binding assay therefore provides a quantitative measure of receptor activation.
Membranes were prepared from CHO cells stably transfected with human mGluR2. […] The amount of radioactivity bound was determined by counting plates on the Packard TopCount. […]

T1 sequence (Q14416 19-819 limits assumed): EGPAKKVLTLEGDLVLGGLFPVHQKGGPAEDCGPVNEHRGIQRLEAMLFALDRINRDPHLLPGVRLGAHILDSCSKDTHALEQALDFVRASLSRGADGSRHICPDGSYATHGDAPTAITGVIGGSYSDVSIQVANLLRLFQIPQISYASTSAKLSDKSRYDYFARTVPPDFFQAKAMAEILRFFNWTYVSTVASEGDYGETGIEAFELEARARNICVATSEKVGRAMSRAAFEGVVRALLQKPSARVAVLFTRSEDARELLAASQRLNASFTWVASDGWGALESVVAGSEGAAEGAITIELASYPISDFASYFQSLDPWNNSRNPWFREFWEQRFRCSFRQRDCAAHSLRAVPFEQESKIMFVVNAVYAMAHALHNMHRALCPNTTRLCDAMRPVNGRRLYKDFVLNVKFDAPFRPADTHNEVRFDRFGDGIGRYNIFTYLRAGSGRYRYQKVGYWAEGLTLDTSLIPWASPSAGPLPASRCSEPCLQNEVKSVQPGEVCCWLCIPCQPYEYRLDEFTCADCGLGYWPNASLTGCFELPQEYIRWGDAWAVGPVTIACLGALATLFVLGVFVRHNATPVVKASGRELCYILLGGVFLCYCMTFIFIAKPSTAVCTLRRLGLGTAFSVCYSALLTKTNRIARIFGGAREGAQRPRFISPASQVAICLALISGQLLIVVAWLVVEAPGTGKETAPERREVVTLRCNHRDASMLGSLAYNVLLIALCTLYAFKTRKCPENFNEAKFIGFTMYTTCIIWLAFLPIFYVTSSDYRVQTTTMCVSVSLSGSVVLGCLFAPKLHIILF

Compound	EC50
Cc1cc(-c2nc(CN3CCN(C=O)CC3)no2)cc2c1C(=O)N(Cc1ccc(OC(F)(F)F)cc1)C2 [Example 10.4, 4-{5-[7-Methyl-1-oxo-2-(4-trifluoromethoxy-benzyl)-2,3-dihydro-1H-isoindol-5-yl]-[1,2,4]oxadiazol-3-ylmethyl}-piperazine-1-carbaldehyde]	230 nM
Cc1cc(CC2CCN(Cc3ccccc3F)CC2)cc2c1C(=O)N(CC1CC1)C2 [Example 11, 2-Cyclopropylmethyl-5-[1-(2-fluorobenzyl)-piperidin-4-ylmethyl]-7-methyl-2,3-dihydro-isoindol-1-one]	84 nM
O=C1c2c(Cl)cc(-c3noc(CN4CCC(F)CC4)n3)cc2CN1Cc1ccc(OC(F)(F)F)cc1 [Example 8.3, 7-Chloro-5-[5-(4-fluoro-piperidin-1-ylmethyl)-[1,2,4]oxadiazol-3-yl]-2-(4-trifluoromethoxy-benzyl)-2,3-dihydro-isoindol-1-one]	75 nM
Cc1cc(CC2CCN(Cc3ccc(F)cc3)CC2)cc2c1C(=O)N(CC1CCCCC1)C2 [Example 13.7, 2-Cyclohexylmethyl-5-[1-(4-fluoro-benzyl)-piperidin-4-ylmethyl]-7-methyl-2,3-dihydro-isoindol-1-one]	28 nM
